Data: US11446314B2, “Immunoablative therapies” (AVM Biotechnology LLC, priority 2018, dated 2022)
“Also recorded” adds a separate entry of the source.

Legend:
RBC = conditions: doses of about 24 mg/50 kg; cited from earlier work
[1] = tested on: spleen weights or germinal centers; conditions: mice, po daily for 13 weeks; cited from earlier work
[2] = pharmacodynamic (biologic); cited from earlier work
B lymphocytes = test: Treatment of patients with autoimmune diseases (Examples 5 and 9); format: in vivo, human; conditions: patient with an autoimmune disease, acute high dose
Method: Acute high dose prednisone doses range from about 19 mg/kg to about 150 mg/kg, with doses between about 56 mg/kg and about 112 mg/kg being preferred, with a repeat (second) administration of this dose 24 hours later and an optional repeat (third) administration of this dose 48-72 hours after the initial dose.

germinal centers [3] = test: FITC-PNA staining of germinal centers in mouse spleen sections; format: in vivo; conditions: for HED dose from which germinal centers are reduced: acute dose, about; for Germinal Center staining intensity in spleen: 48 hours before spleen harvest
Method: FIG. 2. […] A graph of column plots of average Germinal Center staining intensity measured using immunofluorescent staining of fresh thick spleen sections stained with FITC-PNA is shown. Immunofluorescent intensity was calculated using thresholding and MetaMorph Image Analysis. Columns are average plus SEM.
The spleens were removed, weighed wet, and then fixed in 10% formalin. Subsequently the spleens were sectioned via proprietary methods and then incubated with FITC-PNA at 4 degC for 24 hours, washed, placed on slides and immunofluorescent images were captured. Metamorph software was used to quantify the immunofluorescent signal.

pemphigus = conditions: 100 mgs by 2 hour IV infusion daily for 3 days, every 28 days until cure; cited from earlier work
hematopoietic stem cells = test: Live hematopoietic stem cells in naïve mice; conditions: 48 hours, low or high doses vs placebo
lymphocytes [4] = test: Lymphodepletion in C57B1 female mice; format: in vivo, mouse; conditions: oral, HED 12, 15, 18 mg/kg tested
lymphocytes [5] = test: Flow cytometry of blood cells in human patients before and 48 hours after oral 3 mg/kg dexamethasone base
Description: FIG. 14. […] Each patient's pre-treatment values are connected to post-treatment values by a connecting line. CD4+ cells are also CD3+. CD8+ cells are also CD3+.
FIG. 15. […] Each patient's pre-treatment values are connected to post-treatment values by a connecting line. Tregs are identified by being CD3+CD4+CD25+FoxP3+. B lymphocytes are identified by being CD3−CD19+.
FIG. 16. […] Each patient's pre-treatment values are connected to post-treatment values by a connecting line. NK cells are identified by being CD3−CD16/56+. HSCs are identified by being CD34+CD38−.
(§1) Blood was drawn before drug treatment and 48 hours post-treatment for CBC analysis and flow cytometry to determine lymphocyte and other blood cell populations. Serum was analyzed for cytokine levels.

[6] = Double-blind controlled horse trial; format: in vivo; conditions: horses, acute high dose, out to 70 days
spleen cellularity = conditions: cited from earlier work
[7] = tested on: peripheral blood T and B lymphocytes; conditions: single oral 0.24 mg/kg dose; cited from earlier work
[8] = tested on: CD4+, CD8+, Tregs and B cells; test: Preliminary dose escalation studies in naïve mouse and rat models; format: in vivo
germinal centers [9] = conditions: rats IV or PO 20, 40, 80 mg/kg (HED 3.23, 6.45, 12.9 mg/kg), 48 hours
Method: Column plots of the area per spleen of BCL-6 staining of 5 micron fixed spleen sections as a measure of germinal center numbers given as average per section are shown.
Formalin-fixed spleens were cross-sectioned in 5 pieces, trimmed and embedded in paraffin, sectioned and stained with hematoxylin and eosin (H&E). Measurements of the periarteriolar lymphoid sheath (PAL) diameter and the width of the marginal zone (MZ) in areas of white pulp that had PAL with the greatest diameter were measured using an ocular micrometer. BCL-6 immunohistochemical staining in rat spleens was evaluated to determine GC area using automated image analysis methods.

[10] = tested on: peripheral blood lymphocytes
[11] = Clinical chemistries in mice; format: in vivo, mouse
[12] = tested on: bone marrow mesenchymal stem cells; test: Human bone marrow MSC number by CFU-F; conditions: oral 3 mg/kg dexamethasone base, 48 hours, vs 31 historical controls
IL-2, IL-15, IL-6 = tested on: IL-2, IL-15, IL-6
Method: as §1

marginal zone = conditions: rats IV or PO 20, 40, 80 mg/kg (HED 3.23, 6.45, 12.9 mg/kg), 48 hours
Method: Formalin-fixed spleens were cross-sectioned in 5 pieces, trimmed and embedded in paraffin, sectioned and stained with hematoxylin and eosin (H&E). Measurements of the periarteriolar lymphoid sheath (PAL) diameter and the width of the marginal zone (MZ) in areas of white pulp that had PAL with the greatest diameter were measured using an ocular micrometer.

[13] = tested on: bone marrow mesenchymal stem cells; test: Horse sternal bone marrow MSC number and trilineage differentiation; format: in vivo; conditions: horses, 6 mg/kg HED, one hour IV infusion, 48 hours
[14] = oral 3 mg/kg dexamethasone base, 48 hours

Question: With `C[C@H]1C[C@H]2[C@@H]3CCC4=CC(=O)C=C[C@]4(C)[C@@]3(F)[C@@H](O)C[C@]2(C)[C@@]1(O)C(=O)CO` [betamethasone] as the compound, how does the “effect on RBC” value (RBC) read?
Answer: The value was “reduces RBC”.

Question: Which results are given for `C[C@]12C=CC(=O)C=C1CC[C@@H]1[C@@H]2C(=O)C[C@@]2(C)[C@H]1CC[C@]2(O)C(=O)CO` [prednisone]?
Answer: dose above which spleen weights or germinal centers are significantly impacted [1]: over 2.5 mg/kg; biologic half-life [2]: about 20 hours; reduction of B lymphocyte numbers (B lymphocytes): greater than 90%; reduction of memory B cell populations (B lymphocytes): greater than 90%

Question: For `C[C@@H]1C[C@H]2[C@@H]3CCC4=CC(=O)C=C[C@]4(C)[C@@]3(F)[C@@H](O)C[C@]2(C)[C@@]1(O)C(=O)CO` [dexamethasone], which “HED dose from which germinal centers are reduced” value (germinal centers [3]) is on record?
Answer: The value was ≥ 6 mg/kg.

Question: What about the “HED dose from which germinal centers are reduced” value (germinal centers [3]; listed as Dexamethasone) of the same compound?
Answer: The value was ≥ 3 mg/kg.

Question: And the “Germinal Center staining intensity in spleen” value (germinal centers [3]; mice, HED 6 mg/kg)?
Answer: The value was “Germinal center reduction is apparent”.

Question: And the “Germinal Center staining intensity in spleen” value (germinal centers [3]; mice, HED 9 and 12 mg/kg)?
Answer: Its value is “not significantly reduced until HED of 9 and 12 mg/kg doses; also recorded: significantly reduced”.

Question: What about the “FITC-PNA immunofluorescence (germinal centers) in spleen” value (germinal centers [3]; mice, IP HED 9.3 mg/kg dexamethasone base, 96 hours before spleen harvest) of the same compound?
Answer: Its value is “almost no immunofluorescent signal”.

Question: What about the relapse rate (pemphigus) of the same compound?
Answer: The relapse rate was 15%.

Question: And the “number of live hematopoietic stem cells” value (hematopoietic stem cells)?
Answer: The value was “did not significantly alter”.

Question: And the “dose above which lymphoablation is completely evident” value (lymphocytes [4])?
Answer: The value was “above 18 mg/kg”.

Question: What about the “patients who showed lymphocytosis” value (lymphocytes [5]; 3 mg/kg HED) of the same compound?
Answer: The value was 50%.

Question: What about the “hematopoietic stem cells (CD34+CD38−)” value (lymphocytes [5]; [14]) of the same compound?
Answer: The value was “spared”.

Question: What about the “patients who depleted CD3, CD4 and CD8 positive lymphocytes” value (lymphocytes [5]; [14]) of the same compound?
Answer: Its value is 2 of 4.

Question: What about the “patients who depleted NK cells” value (lymphocytes [5]; [14]) of the same compound?
Answer: Its value is 3 of 4.

Question: And the “patients who depleted Tregs and B lymphocytes” value (lymphocytes [5]; [14])?
Answer: Its value is 1 of 4.

Question: What about the “patients with lymphocytosis response in CD3 and CD4 lymphocytes” value (lymphocytes [5]; oral 3 mg/kg, 48 hours) of the same compound?
Answer: Its value is 2 of 4.

Question: What about the “patients with lymphocytosis response in CD8, B lymphocytes and NK cells” value (lymphocytes [5]; oral 3 mg/kg, 48 hours) of the same compound?
Answer: Its value is 1 of 4.

Question: And the “patients who responded with lymphodepletion” value (lymphocytes [5]; oral 3 mg/kg, 48 hours, un-normalized flow cytometry data)?
Answer: Its value is 2 of the 4.

Question: What about the adverse side effects [6] of the same compound?
Answer: Its adverse side effects is “no adverse side effects were observed”.

Question: And the “lymphodepletion in comparison to total body irradiation” value (spleen cellularity; HED 0.8 mg/kg on day −6, −4, −2)?
Answer: The value was “lymphodepleted equivalently to 5Gy TBI”.

Question: What about the reduced spleen cellularity (spleen cellularity; IP 10 mg/kg (HED 0.81 mg/kg) on day −6, −4, −2 before ACT) of the same compound?
Answer: The reduced spleen cellularity was 99%.

Question: What about the “suppression of peripheral blood T and B lymphocytes” value [7] of the same compound?
Answer: Its value is 80%.

Question: What about the “time at which recovery begins” value [7] of the same compound?
Answer: Its value is 12 h.

Question: And the “time to normal levels” value [7]?
Answer: Its value is ≤ 24 h.

Question: What about the “effects of oral dosing compared to IV dosing” value ([8]; acute high dose) of the same compound?
Answer: The value was “comparable effects”.

Question: And the “reduction in CD4+, CD8+, Tregs and B cells population” value ([8]; high doses, 48 hours after administration)?
Answer: The value was ~98%.

Question: And the lymphodepletion ([8]; high-dose dexamethasone, naïve mouse and rat models)?
Answer: The lymphodepletion was “complete lymphodepletion”.

Question: What about the “germinal center area (BCL-6 staining) in spleen” value (germinal centers [9]) of the same compound?
Answer: The value was “reduced at all dexamethasone doses”.

Question: And the “CD3+ T lymphocytes” value ([10]; IP 10 mg/kg (HED 0.81 mg/kg) on day −6, −4, −2, control 3370)?
Answer: The value was 2441 live events.

Question: What about the “B lymphocytes (CD3−CD19+ cells) in the peripheral blood” value ([10]; IP 10 mg/kg (HED 0.81 mg/kg) on day −6, −4, −2, vehicle control 10680) of the same compound?
Answer: The value was 3733 live events.

Question: What about the “reduction of B lymphocytes” value ([10]; IP 10 mg/kg (HED 0.81 mg/kg) on day −6, −4, −2, vs vehicle, significant) of the same compound?
Answer: Its value is 65%.

Question: And the “CD3+CD4+CD25+FoxP3+ Tregs” value ([10]; same dosing, control 198)?
Answer: Its value is 70 live events.

Question: And the “CD3+CD8 T lymphocytes” value ([10]; same dosing, control 1318)?
Answer: The value was 1277 live events.

Question: What about the “CD3+CD4+ T lymphocytes” value ([10]; same dosing, control 1779) of the same compound?
Answer: Its value is 902 live events.

Question: And the glucose level ([11]; after acute high dose dexamethasone)?
Answer: Its glucose level is “not elevated over the normal range”.

Question: And the “clinical chemistry levels including cholesterol and total protein” value ([11]; mice, acute oral HED doses 6-12 mg/kg)?
Answer: The value was “do not elevate clinical chemistry levels out of normal range”.

Question: What about the “reduction of B lymphocyte numbers” value (B lymphocytes) of the same compound?
Answer: The value was “greater than 90%”.

Question: And the “reduction of memory B cell populations” value (B lymphocytes)?
Answer: The value was “greater than 90%”.

Question: And the “ileac crest bone marrow MSC number (CFU-F per ml)” value [12]?
Answer: The value was “almost two fold; also recorded: about twice as high”.

Question: What about the “dose at which plasma IL-2 and IL-15 cytokine elevations are observed” value (IL-2, IL-15, IL-6; dexamethasone base, HED, about) of the same compound?
Answer: Its value is ≥ 3 mg/kg.

Question: And the “patients with elevated levels of IL-2” value (IL-2, IL-15, IL-6; [14])?
Answer: Its value is 3 of 4.

Question: What about the “patients with elevated levels of IL-15” value (IL-2, IL-15, IL-6; [14]) of the same compound?
Answer: Its value is 4 of 4.

Question: And the “patients with increased serum IL-2 and/or IL-15 levels” value (IL-2, IL-15, IL-6; [14])?
Answer: The value was 100%.

Question: What about the “levels of plasma IL-2 and IL-15 cytokines” value (IL-2, IL-15, IL-6; small number of human osteoarthritis patients, acute high dose) of the same compound?
Answer: The value was “elevates”.

Question: What about the “marginal zone area (width) in spleen” value (marginal zone) of the same compound?
Answer: Its value is “reduced at all dexamethasone doses”.

Question: What about the “sternal BM MSC stem cell number” value [13] of the same compound?
Answer: Its value is “doubled”.
